Reference: patent publication US6689362B1, “Method for treating T-lineage leukemias and lymphomas using a CD7-specific monoclonal antibody (TXU-7) linked to the pokeweed antiviral protein (PAP)” (priority 1997, dated 2004)
Several values for one entry are separate records, joined by “and”; a condition that tells them apart may be missing. Equal values may be shown once.

Test system: clinical HIV-1 isolates (AT-101, AT-328, AT-332)
Experiment: Hu-PBL-SCID mouse model of human AIDS (HIV-PCR and HIV-culture)
Format: in vivo
[1] = 1 mg/ml in water, average 200 mg/kg/day

SMILES: Cc1cn([C@H]2C[C@H](N=[N+]=[N-])[C@@H](CO)O2)c(=O)[nH]c1=O [AZT, zidovudine]
- Cx+ [1]: 4/8
- PCR+ [1]: 4/10
- PCR+ Cx+ [1]: 4 and 4/8
- PCR+ CxND [1]: 0/2
- PCR+ Cx− [1]: 3 and 4/8
- PCR− Cx− [1]: 0/8
- mice tested HIV-1 negative [1]: 3 of 10
- gp120 on CD7 cells from peritoneal cavities (flow cytometry) (treated Hu-PBL-SCID mice): presence of gp120 on CD7 cells
